Assay: Relaxivity determination (r1p) at 20 MHz, 298K, pH 7
Assay type: physicochemical
Details: 298K, 20 MHz, pH 7; q=1 Gd complexes derived from the DTPA-monophosphonate backbone (Table 5)
Protocol: As far as the relaxation enhancement property is concerned, a paramagnetic Gd(III) complex is characterized by its relaxivity (r1p) which represents the increase of the proton relaxation rate of an aqueous solution of the Gd(III) complex in comparison to the proton relaxation rate of neat water (R1°). The relaxivity is usually measured at 298K and 20 MHz (0.5 T).
In order to best evaluate the relaxivity properties and the parameters affecting the relaxivity of the agents of the invention, some comparative tests have been performed. In a first experiment, the relaxivity of a number of Gd-based chelated compounds having different molecular weight, all derived from the following [Gd(DTPA-monophosphonate)]^3− basic backbone structure (r1p at 20 MHz and 298K: 6.1 mM^−1 s^−1) of formula
Tested compounds include the Gd-complex of the chelating compounds 1b and 2b of the invention (hereinafter Gd-1b and Gd-2b) as well as a number of different derivatives of the aforementioned backbone moiety selected in order to cover a range of molecular weights of up to about 1800 Dalton. The relaxivity of all of the tested compounds were measured at 298K and 20 MHz and pH 7. The obtained values, listed in table 5 below (together with the structure of the compounds) have also been plotted against the MW of the complexes (see FIG. 1).
A second experiment was performed to test the relaxivity of different compounds of the invention, marketed NSA, known LDA and other systems, all containing one coordinated water molecule (q=1). The data were registered at 298K and 20 MHz and pH=7, and plotted against their corresponding MW. Relaxivity data relating to LDA P760 and P792 (LDA contrast agents) are based on literature cited below.
(§1) Conversely, the relaxivity improvement shown by the blood pool agent rapidly falls dawn over the same range of magnetic field strength. In addition to the above, please find below as per table 7, other relaxivity values, measured as above indicated, for some other representative compounds of the invention.

Row | R1p (relaxivity) | Molecule
1 | 7.9 mM⁻¹ s⁻¹ | O=C(O)CN(CCN(CCN(CC(=O)O)[C@@H](Cc1c[nH]c2ccccc12)C(=O)O)CP(=O)(O)O)C(Cc1c[nH]c2ccccc12)C(=O)O (stereo partly drawn) [B 22836]
2 | 7.9 mM⁻¹ s⁻¹ | O=C(O)CN(CCN(CCN(CC(=O)O)[C@@H](COCc1ccccc1)C(=O)O)CP(=O)(O)O)[C@@H](COCc1ccccc1)C(=O)O [B 22666]
3 | 7.7 mM⁻¹ s⁻¹ | O=C(O)CN(CCN(CCN(CC(=O)O)[C@@H](Cc1ccccc1)C(=O)O)CP(=O)(O)O)[C@@H](Cc1ccccc1)C(=O)O [B 22606]

Same assay, conditions: 298K, 20 MHz, pH=7; q=1 complexes (Table 6)

Row | R1p (relaxivity) | Molecule
4 | 4.7 mM⁻¹ s⁻¹ | O=C(O)CN1CCN(CC(=O)O)CCN(CC(=O)O)CCN(CC(=O)O)CC1 [Gd-DOTA]
5 | 7.5 mM⁻¹ s⁻¹ | O=C(O)CN1CCN(C(COCc2ccccc2)C(=O)O)CCN(C(COCc2ccccc2)C(=O)O)CCN(C(COCc2ccccc2)C(=O)O)CC1 (stereo not drawn) [Compound B19406]
6 | 6.5 mM⁻¹ s⁻¹ | O=C(O)CN1CCN(C(COCc2ccccc2)C(=O)O)CCN(CC(=O)O)CCN(C(COCc2ccccc2)C(=O)O)CC1 (stereo not drawn) [Compound B19236]
7 | 5.5 mM⁻¹ s⁻¹ | O=C(O)CN1CCN(CC(=O)O)CCN(C(COCc2ccccc2)C(=O)O)CCN(CC(=O)O)CC1 (stereo not drawn) [Compound B19106]
8 | 4.7 mM⁻¹ s⁻¹ | O=C(O)CN(CCN(CC(=O)O)CC(=O)O)CCN(CC(=O)O)CC(=O)O [Gd-DTPA]

Same assay, conditions: measured as above indicated: 298K, 20 MHz (Table 7)

Row | R1p (relaxivity) | Molecule
9 | 20.4 mM⁻¹ s⁻¹ | O=C(CC[C@@H](C(=O)O)N1CCN([C@@H](CCC(=O)NC(COC2OC(CO)C(O)C(O)C2O)(COC2OC(CO)C(O)C(O)C2O)COC2OC(CO)C(O)C(O)C2O)C(=O)O)CCN([C@@H](CCC(=O)NC(COC2OC(CO)C(O)C(O)C2O)(COC2OC(CO)C(O)C(O)C2O)COC2OC(CO)C(O)C(O)C2O)C(=O)O)CCN([C@@H](CCC(=O)NC(COC2OC(CO)C(O)C(O)C2O)(COC2OC(CO)C(O)C(O)C2O)COC2OC(CO)C(O)C(O)C2O)C(=O)O)CC1)NC(COC1OC(CO)C(O)C(O)C1O)(COC1OC(CO)C(O)C(O)C1O)COC1OC(CO)C(O)C(O)C1O (stereo partly drawn) [Gd-7c]
10 | 24 mM⁻¹ s⁻¹ | O=C(O)CCC(C(=O)O)N1CCN(Cc2cccc(C(=O)NCC(CNC(=O)C(O)C(O)C(O)C(O)CO)(CNC(=O)C(O)C(O)C(O)C(O)CO)CNC(=O)C(O)C(O)C(O)C(O)CO)c2)CCN(C(CCC(=O)O)C(=O)O)CCN(C(CCC(=O)O)C(=O)O)CC1 (stereo not drawn) [Gd-1d]

Row | Molecule | R1p (relaxivity)
11 | CC1(N(CC(=O)O)CC(=O)O)CN(C(CCC(=O)N(CCN(CCC(=O)NC(CO)(CO)CO)CCC(=O)NC(CO)(CO)CO)CCN(CCC(=O)NC(CO)(CO)CO)CCC(=O)NC(CO)(CO)CO)C(=O)O)CCN(C(CCC(=O)N(CCN(CCC(=O)NC(CO)(CO)CO)CCC(=O)NC(CO)(CO)CO)CCN(CCC(=O)NC(CO)(CO)CO)CCC(=O)NC(CO)(CO)CO)C(=O)O)C1 (stereo not drawn) [Gd-15a] | 16.7 mM⁻¹ s⁻¹

Assay: 1/T1 NMRD profiles: relaxivity over a range of magnetic field strength
Assay type: physicochemical
Details: from 0.2 to 3 MHz; 25° C., 1 mM aqueous solution (FIG. 6)
Protocol: As an example, the relaxivity profile of the gadolinium complex of the chelating ligand of the invention 2b (hereinafter referred to as Gd-2b), in the above magnetic field range, has been compared with that of a marketed NSA, i.e. Magnevist®, and that of a blood pool agent, i.e. the macromolecular adduct between Gd-DTPA(BOM)3 and BSA (Bovine Serum Albumin) (FIG. 6).
The corresponding profile for the above blood pool agent is quite different.
A further test was performed in which the relaxivity values r1p, shown by the compounds of the invention as measured at 20 MHz and 298K, were plotted against the molecular reorientational values τR of the same compounds. The stability of the relaxivity properties shown by the compounds of the invention was tested. In a first experiment, the 1/T1 NMRD profiles for some compounds of the invention were acquired over a range of magnetic field strengths ranging from 0.01 to 130 MHz. […]
as §1

Row | Molecule | relaxivity profile versus field strength
12 | Gd-DTPA | quite stable though very low

From patent publication US8540966B2, “Contrast agents endowed with high relaxivity” (Bracco Imaging S.p.A., priority 2004, dated 2013)
